{"source": "patent EP4806445A1", "about": "“USE OF COMPOSITION FOR PREVENTING, ALLEVIATING OR TREATING DIABETIC KIDNEY DISEASE COMPRISING ZINC SALT AND CYCLO-HISPRO AS ACTIVE INGREDIENTS” (Novmetapharma Co., Ltd., priority 2023, dated 2025)", "format_in_all_cases": "in vivo", "key": {"KKAy mice [1]": {"system": "KKAy mice", "assay": "Measurement of urine albumin (albuminuria) in diabetic kidney disease model", "settings": "week 16 of administration; for albuminuria: 24-hour urine, losartan 20 mg/kg in drinking water, dapagliflozin 2 mg/kg, CycloZ 15 mg/kg oral daily, negative control 51.4; for decrease in albuminuria compared to the negative control group: same doses as E1", "procedure": "Five-week-old KKay mice were purchased from Clea, Japan, and as a normal control group, five-week-old C57BL6/J mice were purchased from Daehan Bio Link Co., Ltd. Breeding was performed under constant conditions (temperature: 22±2 °C, relative humidity: 55±10%, circadian cycle: 12 hours), and Purina mouse diet was used as feed and distilled water was used as drinking water. Mice were used in the experiment after a one-week adaptation period following purchase. Lorsartan used in the examples below was purchased from […], and dapagliflozin was purchased from Betapahrma. Metabolic cages were prepared using products from Jeongdo B&P Co., Ltd. Isoflurane, which is necessary for anesthesia and dissection of mice, was purchased from Hana Pharm Co., Ltd., and the RC2 Rodent Circuit Controller Anesthesia System from Vetequip was prepared. Phosphate buffered saline (PBS) was purchased from Hyclone. The KKAy animal model is known to have 10-50 times higher proteinuria (albuminuria) than the db/db animal model, and is reported to show the most severe mesangial matrix expansion among all models. […] The normal control group and the negative control group were orally administered the same amount of distilled water daily. [Table 1] At week 16 of administration, 24-hour urine was collected using a metabolic cage and centrifuged at 2,000 rpm for 10 minutes to remove suspended solids. Albumin was measured with a DCA vantage analyzer (Siemens) and DCA® Microalbumin/Creatinine Urine Test cartridge (Siemens) using urine diluted 1/10 with distilled water."}, "KKAy mice [2]": {"system": "KKAy mice", "assay": "ACR, drug administration from severe condition, CycloZ, losartan and/or sitagliptin (Example 4)", "settings": "week 9", "procedure": "(§1) At week 11 of administration, 24-hour urine was collected using a metabolic cage and centrifuged at 1,000 rpm for 5 minutes to remove suspended solids. Albumin was measured with a DCA vantage analyzer (Siemens) and DCA® Microalbumin/Creatinine Urine Test cartridge (Siemens) using urine diluted 1/2 with distilled water. Creatinine was measured using undiluted urine and a mouse creatinine assay kit (Crystalchem). The measured albumin (mg/dL) value was divided by the creatinine (g/dL) value to derive the ACR (mg/g) value.\n(§2) After breeding five-week-old KKAy mice of Example 1-1 for 6 weeks, urine was collected for 24 hours and ACR was measured using the same method as in Example 3-2. The groups were randomly divided as shown in Table 5 so that the average ACR values were the same, and then the drug was orally administered daily for 9 weeks from the age of 12 weeks as shown in Table 5. At this time, losartan was dissolved in drinking water to allow a daily intake of 20 mg/kg per subject, and the remaining drugs were orally administered daily.\nAt week 9 of administration, 24-hour urine was collected using a metabolic cage, and ACR was measured using the same method as in Example 3-2."}, "KKAy mice [3]": {"system": "KKAy mice", "assay": "ACR, drug administration from severe condition, CycloZ and/or metformin (Example 5)", "settings": "week 12", "procedure": "as §1\nas §2, with “6” for “5”, “12” for “9”, “6.” for “5. At this time, losartan was dissolved in drinking water to allow a daily intake of 20 mg/kg per subject, and the remaining drugs were orally administered daily.”\nAt week 12 of administration, 24-hour urine was collected using a metabolic cage, and ACR was measured using the same method as in Example 3-2."}, "KKAy mice [4]": {"system": "KKAy mice", "assay": "ACR, drug administration from severe condition, CycloZ and/or sitagliptin (Example 3-3/3-4)", "settings": "week 11", "procedure": "as §1\nas §2, with “4” for “5”, “11” for “9”, “4.” for “5. At this time, losartan was dissolved in drinking water to allow a daily intake of 20 mg/kg per subject, and the remaining drugs were orally administered daily.”\nAt week 11 of administration, 24-hour urine was collected using a metabolic cage, and ACR was measured using the same method as in Example 3-2."}, "KKAy mice [5]": {"system": "KKAy mice", "assay": "ACR, drug administration from mild condition (Example 3-1/3-2)", "settings": "administration from mild stage, week 11", "procedure": "Five-week-old KKAy mice of Example 1-1 were pre-bred for one week and then divided into groups as shown in Table 1 so that the average body weights were the same. The control group was orally administered distilled water for 11 weeks, while Group 1 was orally administered 15 mg/kg of CycloZ, Group 2 was orally administered 10 mg/kg of sitagliptin, and Group 3 was orally administered 10 mg/kg of sitagliptin + 15 mg/kg of CycloZ daily for the same period.\nas §1"}, "[6]": {"settings": "administration from severe stage"}}}
{"smiles": "CCOc1ccc(Cc2cc([C@@H]3O[C@H](CO)[C@@H](O)[C@H](O)[C@H]3O)ccc2Cl)cc1", "note": "[Dapagliflozin, dapagliflozin]", "values": [{"measurement": "albuminuria", "setting": "KKAy mice [1]", "result": 31.1, "unit": "mg/dL"}, {"measurement": "decrease in albuminuria compared to the negative control group", "setting": "KKAy mice [1]", "result": 39.5, "unit": "%"}]}
{"smiles": "CCCCc1nc(Cl)c(CO)n1Cc1ccc(-c2ccccc2-c2nn[nH]n2)cc1", "note": "[Losartan, losartan]", "values": [{"measurement": "albuminuria", "setting": "KKAy mice [1]", "result": 39.3, "unit": "mg/dL"}, {"measurement": "decrease in albuminuria compared to the negative control group", "setting": "KKAy mice [1]", "result": 23.5, "unit": "%"}, {"measurement": "ACR", "setting": "KKAy mice [2]; administration from severe stage (age 12 weeks), CycloZ 15 mg/kg, losartan 20 mg/kg in drinking water, sitagliptin 10 mg/kg, negative control 7,118", "result": "7,158 mg/g"}, {"measurement": "effect on alleviating ACR (result in words)", "setting": "KKAy mice [2]; [6]", "result": "did not show a significant effect on alleviating ACR"}]}
{"smiles": "CN(C)C(=N)N=C(N)N", "note": "[Metformin, metformin]", "values": [{"measurement": "ACR", "setting": "KKAy mice [3]; administration from severe stage (age 12 weeks), CycloZ 15 mg/kg, metformin 200 mg/kg oral daily, negative control 2,369", "result": "2,952 mg/g"}, {"measurement": "effect on alleviating ACR (result in words)", "setting": "KKAy mice [3]; [6]", "result": "did not show a significant effect on alleviating ACR"}]}
{"smiles": "N[C@@H](CC(=O)N1CCn2c(nnc2C(F)(F)F)C1)Cc1cc(F)c(F)cc1F", "note": "[Sitagliptin, sitagliptin]", "values": [{"measurement": "ACR", "setting": "KKAy mice [4]; administration from severe stage (age 12 weeks), CycloZ 15 mg/kg, sitagliptin 10 mg/kg oral daily, negative control 4,450", "result": "2,301 mg/g"}, {"measurement": "ACR decrease compared to the negative control group", "setting": "KKAy mice [4]; [6]", "result": 48, "unit": "%"}, {"measurement": "ACR reduced compared to the control group", "setting": "KKAy mice [5]", "result": "~24", "unit": "%"}, {"measurement": "ACR", "setting": "KKAy mice [5]; CycloZ 15 mg/kg, sitagliptin 10 mg/kg oral daily, negative control 6,379", "result": "4,852 mg/g"}]}
